Data taken from paper PMC11785708, “Design and synthesis of new quinazolinone derivatives: investigation of antimicrobial and biofilm inhibition effects” (Molecular Diversity, 2024).
Converted amounts (≈) assume the structure as drawn. “And” between values parts separate entries of the source, which are not always exact repeats. Equal values may be shown once.

Legend:
[1] = test system: C. albicans ATCC 10231; test: Agar well diffusion, C. albicans; assay type: cell-based; details: Candida albicans, ATCC10231; 100 μl of test compound 20 mg/ml in DMF; ciprofloxacin and fluconazole 30 μg/ml; 24 h; mean ± SD; read-out: diameters of inhibition zone, C. albicans ATCC 10231
Protocol: (§1) The antimicrobial activity was tested against Gram positive bacteria: Bacillus cereus (B. cereus ATCC 6629), Bacillus subtilis (B. subtilis ATCC 6633), Staphylococcus aureus (S. aureus ATCC 6538), Gram negative bacteria: Klebsiella pneumoniae (K. pneumoniae ATCC 13883), Pseudomonas aeruginosa (P. aeruginosa ATCC 27953) and Candida albicans (C. albicans ATCC 10231). Glycerol stocks were thawed upon need and propagated into nutrient broth at 37 °C. The antibacterial activity of the compounds 9-32 was carried out in vitro using the agar well diffusion method, originally reported by […] and Bauer and coworkers and described by the National Committee for Clinical Laboratory Standards (NCCLS). Bacterial strains, adjusted at […] (equivalent to 0.5 McFarland), were used to inoculate nutrient agar plates. 9-mm diameter wells were punched into the solidified nutrient agar plates using sterile cork borer and 100 μl samples of the test compounds, dissolved in dimethyl formamide (DMF) at 20 mg/ml concentrations, were added and allowed to diffuse at 4 °C for 2 h. Subsequently, the plates were incubated overnight in an upright position at 37 °C. DMF was used as a negative control while ciprofloxacin and fluconazole (30 μg/ml) served as positive controls. After 24 h incubation, the diameters of the growth inhibition zones were recorded in mm. Data was expressed as mean ± standard deviation of three replicates.

[2] = test system: S. aureus ATCC 6538; test: MIC determination, S. aureus; assay type: cell-based, Staphylococcus aureus; details: Staphylococcus aureus, ATCC6538; serial dilutions, triplicate
Protocol: (§2) Serial dilutions of the test compounds were tested to determine their MIC against the most susceptible organisms. The MIC was expressed as the lowest concentration which inhibited the visible growth of the corresponding microorganism. All assays were performed in triplicate.

[3] = test system: B. subtilis ATCC 6633; test: MIC determination, B. subtilis; assay type: cell-based, Bacillus subtilis; details: Bacillus subtilis, ATCC6633; serial dilutions, triplicate
Protocol: as §2

[4] = test system: B. cereus ATCC 6629; test: MIC determination, B. cereus; assay type: cell-based, Bacillus cereus; details: Bacillus cereus, ATCC6629; serial dilutions, triplicate
Protocol: as §2

[5] = test system: C. albicans ATCC 10231; test: MIC determination, C. albicans; assay type: cell-based, Candida albicans; details: Candida albicans, ATCC10231; serial dilutions, triplicate
Protocol: as §2

[6] = Cell viability MTT assay; assay type: cell-based; details: human, BJ1 cells (normal skin fibroblasts)
Protocol: Cell viability testing at 5 mg/ml was carried out by colorimetric MTT assay on human normal cell line BJ1 (skin fibroblasts) to investigate the toxicity of the most broad spectrum derivatives 9, 15, 16, 18, 19, 20 and 29 (Table 3). The viability of the cells treated with the aforementioned derivatives was more than 87% at 5 mg/ml concentration. This gives indication that the compounds are tolerated and nontoxic for human cells, as the cytotoxic dose was higher than the therapeutic dose on most of microorganisms. It is worth mentioning that the safe limit of the percent of dead cells is not an absolute value and could be more than 10% as reported in previous studies.
The most broad spectrum compounds were evaluated for their cytotoxic activity against BJ1 cell line using colorimetric MTT [3-(4,5-dimethylthiazol-2-yl)-2,5-diphenyltetrazolium bromide] assay.

[7] = test system: B. cereus ATCC 6629; test: Agar well diffusion, B. cereus; assay type: cell-based; details: Bacillus cereus, ATCC6629; 100 μl of test compound 20 mg/ml in DMF; ciprofloxacin and fluconazole 30 μg/ml; 24 h; mean ± SD; read-out: diameters of inhibition zone, B. cereus ATCC 6629
Protocol: as §1

[8] = test system: K. pneumoniae ATCC 13883; test: MIC determination, K. pneumoniae; assay type: cell-based, Klebsiella pneumoniae; details: Klebsiella pneumoniae, ATCC13883; serial dilutions, triplicate
Protocol: as §2

[9] = test system: B. subtilis ATCC 6633; test: Agar well diffusion, B. subtilis; assay type: cell-based; details: Bacillus subtilis, ATCC6633; 100 μl of test compound 20 mg/ml in DMF; ciprofloxacin and fluconazole 30 μg/ml; 24 h; mean ± SD; read-out: diameters of inhibition zone, B. subtilis ATCC 6633
Protocol: as §1

[10] = test system: K. pneumoniae ATCC 13883; test: Agar well diffusion, K. pneumoniae; assay type: cell-based; details: Klebsiella pneumoniae, ATCC13883; 100 μl of test compound 20 mg/ml in DMF; ciprofloxacin and fluconazole 30 μg/ml; 24 h; mean ± SD; read-out: diameters of inhibition zone, K. pneumoniae ATCC 13883
Protocol: as §1

[11] = test system: S. aureus ATCC 6538; test: Agar well diffusion, S. aureus; assay type: cell-based; details: Staphylococcus aureus, ATCC6538; 100 μl of test compound 20 mg/ml in DMF; ciprofloxacin and fluconazole 30 μg/ml; 24 h; mean ± SD; read-out: diameters of inhibition zone, S. aureus ATCC 6538
Protocol: as §1

[12] = test system: P. aeruginosa ATCC 27953; test: Inhibition of exopolysaccharide (EPS) production; assay type: cell-based, Pseudomonas aeruginosa; details: means ± standard errors
Protocol: The inhibition of exopolysaccharide production by P. aeruginosa ATCC 27953 using quinazolinone derivatives was assessed according to total carbohydrate measurement.
P. aeruginosa’s biofilm was grown in the presence or absence of compounds (19, 20). Cells were incubated for 1 h with an equal volume of 5% (v/v) phenol and 5 × volume of concentrated sulfuric acid containing 0.2% (w/v) hydrazine sulphate then centrifuged at 10,000 g for 10 min (Z 326 K, HERMLE Labortechnik GmbH, Wehingen, Germany). The optical density of the supernatant was measured at 490 nm and the reduction in EPS was calculated as follows: EPSquantification%=OD490ofcontrol-OD490oftest/OD490ofcontrol×100

[13] = test system: P. aeruginosa ATCC 27953; test: Bacterial cell surface hydrophobicity (CSH) assay (MATH / BATH); assay type: cell-based, Pseudomonas aeruginosa; details: increasing concentrations, toluene partition (Fig. 6)
Protocol: The effect of the test compounds 19 and 20 on cell surface hydrophobicity was investigated via the microbial or bacterial adherence to hydrocarbons (MATH / BATH) assay. Exponentially growing culture of P. aeruginosa ATCC 27953 incubated with or without test compounds were centrifuged, the pellets were re-suspended and OD600 was measured using UV/Vis spectrophotometer (Jasco V-630, Tokyo, Japan) to give Ao. The re-suspended cells were vigorously mixed with toluene followed by measuring the OD600 of the aqueous phase to give At. The hydrophobicity index was calculated as follows: Hydrophobicityindex=Ao-At/Ao×100

[14] = test system: Pseudomonas aeruginosa ATCC 27953; test: Twitching motility assay; assay type: cell-based; details: highest tested concentration (= MIC)
Protocol: 5 µL of overnight-grown bacteria were stab-inoculated into Luria Bertani (LB) soft or quasi-solid plates containing 0.3% agar mixed with different concentrations of compounds 19, 20 and further incubated overnight in an upright position. The visible detectable distance of corrugated trails of twitching zones, away from the inoculation center at the petri dish-agar interface, was measured afterwards. The results were recorded as the average of several diameters’ measurements. DMF was used as a negative control. The experiments were performed in triplicate and represented as the mean of three measurements.

[15] = test system: P. aeruginosa ATCC 27953; test: Biofilm inhibition assay (crystal violet); assay type: cell-based; details: Pseudomonas aeruginosa, ATCC27953, P. aeruginosa ATCC 27953, 24 h
Protocol: Compounds with potential activity against P. aeruginosa ATCC 27953 were tested for the respective biofilm inhibition. The assay was carried out in microtiter plate setup using crystal violet (CV) staining of adherent cells, as modified from.
After 24 h cultivation, the supernatant and planktonic cells were discarded, wells were washed with phosphate buffered saline (PBS) and biofilms were stained with 0.1% CV. CV was subsequently washed then, solubilized with 33% (v/v) glacial acetic acid. The absorbance was measured at 540 nm using SPECTROstar® Nano microplate reader (BMG LABTECH GmbH, Germany). The experiments were performed in triplicate and independently repeated three times. GraphPad Prism 6.0 software was used to estimate the IC50 values, which correspond to […].

[16] = test system: P. aeruginosa ATCC 27953; test: Agar well diffusion, P. aeruginosa; assay type: cell-based; details: Pseudomonas aeruginosa, ATCC27953; 100 μl of test compound 20 mg/ml in DMF; ciprofloxacin and fluconazole 30 μg/ml; 24 h; mean ± SD; read-out: diameters of inhibition zone, P. aeruginosa ATCC 27953
Protocol: as §1

[17] = test system: P. aeruginosa ATCC 27953; test: MIC determination, P. aeruginosa; assay type: cell-based, Pseudomonas aeruginosa; details: serial dilutions, triplicate
Protocol: as §2

| SMILES | MIC [3] [µg/mL] | MIC [4] [µg/mL] | viability at 5 mg/ml [6] [%] | zone of inhibition at 20000 µg/mL [7] [mm] | melting point [°C] | MIC [8] [µg/mL] | zone of inhibition at 20000 µg/mL [9] [mm] | zone of inhibition at 20000 µg/mL [10] [mm] | also measured |
| --- | --- | --- | --- | --- | --- | --- | --- | --- | --- |
| COc1ccc(C=Nn2c(CN3CCCC3)nc3ccccc3c2=O)cc1 [Compound 18, 3-[(4-Methoxybenzylidene)amino]-2-(pyrrolidin-1-ylmethyl)quinazolin-4(3H)-one] | 1500 ± 290 (≈ 4.14 mM) | 2500 ± 290 (≈ 6.9 mM) | 87.2 ± 2.34 | 17 ± 0.3 | 118 to 120 | 2000 (≈ 5.52 mM) | 16 ± 0.31 | 18 ± 0.2 | zone of inhibition at 20000 µg/mL [1]: 13 ± 0.14 mm; MIC [2]: 2500 µg/mL (≈ 6.9 mM); MIC [5]: 10000 ± 290 µg/mL (≈ 27.6 mM); zone of inhibition at 20000 µg/mL [11]: 14 ± 0.21 mm |
| COc1cc(C=Nn2c(CN3CCCC3)nc3ccccc3c2=O)cc(OC)c1OC [Compound 19, 2-(Pyrrolidin-1-ylmethyl)-3-[(3,4,5-trimethoxybenzylidene)amino]quinazolin-4(3H)-one] | 1000 ± 290 (≈ 2.37 mM) | 10000 ± 500 (≈ 23.7 mM) | 92.3 ± 3.37 | 17 ± 0.22 | 166 | 1000 ± 290 (≈ 2.37 mM) | 14 ± 0.31 | 18 ± 0.24 | % EPS inhibition ([12]; 1/4 MIC): 54.15 ± 4.00%; % EPS inhibition ([12]; 1 MIC): 55.93 ± 3.31%; % EPS inhibition ([12]; 2 MIC): 63.79 ± 2.70%; effect on hydrophobicity index (CSH) [13]: no evident effect on CSH; change in twitching zone diameter [14]: 30%; IC50 [15]: 3.55 µM and 1.5 µg/mL; zone of inhibition at 20000 µg/mL [16]: 16 ± 0.18 mm; MIC ([17]; Pseudomonas aeruginosa, ATCC27953): 150 µg/mL (≈ 0.355 mM); MIC, P. aeruginosa ATCC 27953 [17]: 150 ± 60 µg/mL (≈ 0.355 mM) |
